Holding throughout (type): biochemical
The target in assay [1] is T1, UGT 2B17 (Homo sapiens, UniProt O75795).
T1 construct: purchased BD Gentest; host or cells: insect cells (microsomes)
T1 sequence (O75795 24-530): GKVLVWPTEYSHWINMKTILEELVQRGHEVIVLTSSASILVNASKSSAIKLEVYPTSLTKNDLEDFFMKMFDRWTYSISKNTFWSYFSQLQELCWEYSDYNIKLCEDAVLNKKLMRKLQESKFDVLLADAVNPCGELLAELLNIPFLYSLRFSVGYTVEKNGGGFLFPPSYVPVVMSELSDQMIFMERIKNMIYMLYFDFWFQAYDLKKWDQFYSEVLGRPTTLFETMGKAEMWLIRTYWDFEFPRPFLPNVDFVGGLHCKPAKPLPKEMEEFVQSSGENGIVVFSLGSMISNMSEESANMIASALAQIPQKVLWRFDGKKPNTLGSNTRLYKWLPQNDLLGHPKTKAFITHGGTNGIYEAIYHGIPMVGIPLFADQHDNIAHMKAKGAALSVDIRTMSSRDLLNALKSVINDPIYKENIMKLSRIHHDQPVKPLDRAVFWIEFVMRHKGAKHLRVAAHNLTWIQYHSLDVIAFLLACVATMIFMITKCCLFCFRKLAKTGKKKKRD
In words: UGT activity: utilization of substrate by recombinant UGT 2B17 Supersomes. The settings on record: 2 hour incubation at 37° C., plus vs minus UDPGA. How it is done:
(§1) The invention includes a method of determining activity of the uridine 5′-diphospho-glucuronosyltransferase (UDP-glucuronosyltransferase, or UGT) family enzymes in vitro. Briefly, UGT enzymes from overexpressed insect microsomes (Supersomes™, BD Gentest™) or animal tissue microsomes (Xenotech, BD Gentest™) were incubated with a cyanobenzothiazole substrate of the invention and the cofactor UDP-glucuronic acid (UDPGA) at 37° C. in buffer at physiological pH containing MgCl2 and alamethicin (typically, 50 mM TES, pH 7.5, 8 mM MgCl2, 4 mM UDPGA (Sigma) and 25 μg/mL alamethicin (Sigma)). Following the UGT enzyme reaction, an equal volume of P450-Glo Luciferin Detection Reagent (Promega) containing 15-30 mM D-cysteine-HCl.H2O (Sigma) was added and the plate was mixed and incubated at room temperature, typically for 20-30 minutes. […]
(§2) During this incubation, the cysteine reacts with the cyanobenzathiozole substrate to yield a D-luciferin derivative. […] Therefore, activity of the UGT enzyme can be measured by analyzing the difference (lower or no output) in relative light units (RLU) of a sample in which glucuronidation occurs compared to a sample that was run under the same conditions with no added UDPGA cofactor. […]
(§3) Reactions were assembled in a white 96-well plate. […] After the incubation was completed, the plate was read on a Veritas™ luminometer (Turner BioSystems, Inc.; Sunnyvale, Calif.). […]

Assay [2] concerns the target T2, UGT 1A1 (Homo sapiens, UniProt P22309).
T2 construct: purchased BD Gentest; host or cells: insect cells (microsomes)
T2 sequence (P22309 26-533): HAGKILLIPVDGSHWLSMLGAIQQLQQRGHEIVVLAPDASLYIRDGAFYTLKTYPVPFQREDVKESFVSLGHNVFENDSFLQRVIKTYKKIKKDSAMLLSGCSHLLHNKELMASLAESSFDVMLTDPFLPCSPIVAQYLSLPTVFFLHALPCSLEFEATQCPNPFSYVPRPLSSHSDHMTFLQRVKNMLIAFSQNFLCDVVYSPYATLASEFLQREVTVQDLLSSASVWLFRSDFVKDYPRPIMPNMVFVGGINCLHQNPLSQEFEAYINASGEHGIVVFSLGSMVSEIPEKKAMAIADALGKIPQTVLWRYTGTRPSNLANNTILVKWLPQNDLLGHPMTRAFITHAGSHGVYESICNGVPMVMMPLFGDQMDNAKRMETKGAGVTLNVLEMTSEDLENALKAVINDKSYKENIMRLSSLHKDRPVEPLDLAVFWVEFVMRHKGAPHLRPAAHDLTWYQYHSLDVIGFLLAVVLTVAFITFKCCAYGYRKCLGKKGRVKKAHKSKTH
Description: UGT activity: utilization of substrate by recombinant UGT 1A1 Supersomes. The settings on record: 2 hour incubation at 37° C., plus vs minus UDPGA, background corrected. How it is done:
as §1, §2, §3

The target of assay [3] is T3, UGT 2B15 (Homo sapiens, UniProt P54855).
T3 construct: purchased BD Gentest; host or cells: insect cells (microsomes)
T3 sequence (P54855 24-530): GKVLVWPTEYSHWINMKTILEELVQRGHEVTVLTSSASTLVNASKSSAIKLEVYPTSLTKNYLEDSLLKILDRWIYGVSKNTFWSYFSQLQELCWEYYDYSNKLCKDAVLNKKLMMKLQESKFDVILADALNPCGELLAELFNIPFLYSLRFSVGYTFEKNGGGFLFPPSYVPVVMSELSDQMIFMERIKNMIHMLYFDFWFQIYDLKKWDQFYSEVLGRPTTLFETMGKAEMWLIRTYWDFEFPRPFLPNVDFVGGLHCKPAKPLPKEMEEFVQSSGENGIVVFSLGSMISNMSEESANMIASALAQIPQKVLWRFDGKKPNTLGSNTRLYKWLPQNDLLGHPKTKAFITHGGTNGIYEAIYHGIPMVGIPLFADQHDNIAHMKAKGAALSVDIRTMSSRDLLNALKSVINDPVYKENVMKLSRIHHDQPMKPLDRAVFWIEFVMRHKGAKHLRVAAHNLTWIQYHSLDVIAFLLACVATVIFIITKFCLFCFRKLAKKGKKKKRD
Description: UGT activity: utilization of substrate by recombinant UGT 2B15 Supersomes. The settings on record: 2 hour incubation at 37° C., plus vs minus UDPGA. How it is done:
as §1, §2, §3

On to `Cc1cc(O)cc2sc(C3=NC(C(=O)O)CS3)nc12` (stereo not drawn) [compound 3478], for which the “utilization by UGT 2B17 (in words)” value in assay [1] was “only UGT 1A6 was able to utilize compound 3478 to any appreciable extent”. The “% utilization by UGT 1A1” value in assay [2] is listed as at most 15%. In addition, the “utilization by UGT 2B15 (in words)” value in assay [3] was “only UGT 1A6 was able to utilize compound 3478 to any appreciable extent”.

Take `Cc1cc(O)cc2sc(C#N)nc12` [compound 3138]: the “utilization by UGT 2B17 (in words)” value in assay [1] was “detectable levels of utilization above background”. Besides, the “% utilization by UGT 1A1” value in assay [2] is listed as “over 50%”. Moreover, the “utilization by UGT 2B15 (in words)” value in assay [3] is recorded as “detectable levels of utilization above background”.

(Values after US8551721B2, “Bioluminescent detection of cyanohydroxy benzothiazole compounds” (Promega Corporation, priority 2008, dated 2013).)
